This is an account of results in ChEMBL document CHEMBL5370605, “Discovery of Novel Fedratinib-Based HDAC/JAK/BRD4 Triple Inhibitors with Remarkable Antitumor Activity against Triple Negative Breast Cancer” (J Med Chem, 2023).

Usually IC50 stands for the concentration at which inhibition is half-maximal. What is called half-life is the time needed for the level to fall by half in the phase considered. The term Tmax denotes the time from dosing to the highest level. A word on the Cmax: it is the maximum level reached in the sampled fluid or tissue. The AUC(0-t) is the area under the concentration-time curve up to a stated or last time point. High values mean high exposure, low ones low exposure. As a reminder, the MRT last is a mean duration of stay, worked out from the concentration-time curve. By Vdss is commonly meant the apparent volume that relates the amount in the body to the concentration in plasma or blood.

The target of data set [1] is Histone deacetylase 1 (Homo sapiens, UniProt Q13547). Put plainly: Inhibition of HDAC1 (unknown origin) using Boc-Lys(Ac)-AMC as substrate incubated for 30 mins by fluorescence based analysis.
Sequence of Histone deacetylase 1 (Q13547 whole entry): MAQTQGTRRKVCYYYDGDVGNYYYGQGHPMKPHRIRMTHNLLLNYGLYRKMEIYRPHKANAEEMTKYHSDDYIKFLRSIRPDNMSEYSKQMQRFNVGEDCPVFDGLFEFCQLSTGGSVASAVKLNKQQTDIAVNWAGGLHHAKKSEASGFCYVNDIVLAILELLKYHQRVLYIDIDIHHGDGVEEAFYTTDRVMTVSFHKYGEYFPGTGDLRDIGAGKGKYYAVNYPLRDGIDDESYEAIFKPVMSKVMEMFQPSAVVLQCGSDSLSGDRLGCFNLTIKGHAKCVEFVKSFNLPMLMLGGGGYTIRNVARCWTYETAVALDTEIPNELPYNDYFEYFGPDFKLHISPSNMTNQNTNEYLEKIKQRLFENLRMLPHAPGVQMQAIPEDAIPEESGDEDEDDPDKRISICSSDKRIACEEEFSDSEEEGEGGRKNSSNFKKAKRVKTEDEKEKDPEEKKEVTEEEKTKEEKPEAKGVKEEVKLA
In data set [2] the target is Tyrosine-protein kinase JAK1 (Homo sapiens, UniProt P23458). Put plainly: Inhibition of JAK1 (unknown origin) incubated for 40 mins in presence of ATP by Kinase-glo luminescent assay. In general terms: Kinase-Glo reads ATP consumption through a luciferase reaction.
Sequence of Tyrosine-protein kinase JAK1 (P23458 whole entry): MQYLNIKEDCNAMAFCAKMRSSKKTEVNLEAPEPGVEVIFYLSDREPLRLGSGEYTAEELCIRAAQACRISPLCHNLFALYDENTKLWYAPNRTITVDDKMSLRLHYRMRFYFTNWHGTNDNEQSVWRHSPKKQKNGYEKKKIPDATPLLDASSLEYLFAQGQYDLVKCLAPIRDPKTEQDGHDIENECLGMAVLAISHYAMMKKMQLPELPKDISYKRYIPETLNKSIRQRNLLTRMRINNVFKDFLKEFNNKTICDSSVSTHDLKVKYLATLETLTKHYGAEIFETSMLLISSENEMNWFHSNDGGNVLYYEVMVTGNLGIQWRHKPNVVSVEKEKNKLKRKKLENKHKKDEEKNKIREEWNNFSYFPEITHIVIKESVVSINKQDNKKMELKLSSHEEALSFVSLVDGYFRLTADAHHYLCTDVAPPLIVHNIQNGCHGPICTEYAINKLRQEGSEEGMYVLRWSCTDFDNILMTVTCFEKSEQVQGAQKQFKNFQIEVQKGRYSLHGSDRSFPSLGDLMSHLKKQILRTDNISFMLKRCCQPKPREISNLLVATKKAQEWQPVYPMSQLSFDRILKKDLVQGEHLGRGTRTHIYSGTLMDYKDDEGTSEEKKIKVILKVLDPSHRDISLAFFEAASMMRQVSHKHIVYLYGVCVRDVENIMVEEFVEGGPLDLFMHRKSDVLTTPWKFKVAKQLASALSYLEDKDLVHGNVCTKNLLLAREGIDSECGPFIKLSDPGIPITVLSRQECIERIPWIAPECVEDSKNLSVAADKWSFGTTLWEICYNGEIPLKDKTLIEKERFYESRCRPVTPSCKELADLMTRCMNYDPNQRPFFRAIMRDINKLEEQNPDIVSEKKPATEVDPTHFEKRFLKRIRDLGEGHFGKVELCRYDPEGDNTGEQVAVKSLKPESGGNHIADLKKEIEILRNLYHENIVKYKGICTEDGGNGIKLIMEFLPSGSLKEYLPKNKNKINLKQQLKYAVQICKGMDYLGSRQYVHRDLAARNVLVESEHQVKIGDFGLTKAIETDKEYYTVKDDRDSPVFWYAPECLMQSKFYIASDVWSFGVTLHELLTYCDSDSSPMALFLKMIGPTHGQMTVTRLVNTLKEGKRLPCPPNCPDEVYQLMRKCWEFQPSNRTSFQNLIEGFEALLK
In data set [3] the target is Bromodomain-containing protein 4 (Homo sapiens, UniProt O60885). Put plainly: Inhibition of recombinant BRD4 BD1 (unknown origin) using H4KAc as substrate incubated for 30 mins by HTRF analysis. (Time-resolved FRET reads energy transfer from a long-lived donor to a nearby acceptor.)
Data set [4] can be described thus: Selectivity index, ratio of IC50 for human GES-1 cells to IC50 for human MDA-MB-231 cells.
The subject of data set [5] is MDA-MB-231. Put plainly: cells. Conditions: Homo sapiens, MDA-MB-231, 48 h.
Data set [6] can be described thus: in vitro. Conditions: human, GES1 cells.
A short description of data set [7]: Metabolic stability in mouse liver microsomes assessed as half life in presence of NADPH by LC-MS/MS analysis. The data set is classed as ADME, Microsome. Background: Liver microsomes are vesicles of endoplasmic reticulum, rich in cytochrome P450 enzymes.
Data set [8] can be described thus: Metabolic stability in mouse liver microsomes assessed as intrinsic clearance in presence of NADPH by LC-MS/MS analysis. Type of data set: ADME, Microsome. The conditions noted are these: read-out: CLH.
Data set [9] is described as follows: Half life in ICR (CD-1) mouse at 10 mg/kg, iv measured for 24 hrs by LC-MS/MS analysis. Type of data set: ADME, organism-based. The conditions noted are these: in vivo.
Data set [10] in a line: Half life in ICR (CD-1) mouse at 50 mg/kg, ip measured for 24 hrs by LC-MS/MS analysis. Type of data set: ADME, organism-based. Conditions: in vivo.
Data set [11] can be described thus: Tmax in ICR (CD-1) mouse at 50 mg/kg, ip measured for 24 hrs by LC-MS/MS analysis. Type of data set: ADME, organism-based. Conditions: in vivo.
Data set [12] in a line: Cmax in ICR (CD-1) mouse at 10 mg/kg, iv measured for 24 hrs by LC-MS/MS analysis. The data set is classed as ADME, organism-based. On the set-up: time 24 hrs, dose 10 mg/kg, route iv. The conditions noted are these: in vivo.
The nature of data set [13]: Cmax in ICR (CD-1) mouse at 50 mg/kg, ip measured for 24 hrs by LC-MS/MS analysis. On the set-up: time 24 hrs, dose 50 mg/kg, route ip. The conditions noted are these: in vivo. Type of data set: ADME, organism-based.
Data set [14] is described as follows: AUC (0 to t) in ICR (CD-1) mouse at 10 mg/kg, iv measured for 24 hrs by LC-MS/MS analysis. Type of data set: ADME, organism-based. On the set-up: dose 10 mg/kg, time 24 hrs, route iv. The conditions noted are these: in vivo.
A short description of data set [15]: AUC (0 to t) in ICR (CD-1) mouse at 50 mg/kg, ip measured for 24 hrs by LC-MS/MS analysis. Type of data set: ADME, organism-based. More on the design: dose 50 mg/kg, time 24 hrs, route ip. The conditions noted are these: in vivo.
Data set [16] in a line: MRT (0 to t) in ICR (CD-1) mouse at 10 mg/kg, iv measured for 24 hrs by LC-MS/MS analysis. Conditions: in vivo. Type of data set: ADME, organism-based.
Data set [17] can be described thus: MRT (0 to t) in ICR (CD-1) mouse at 50 mg/kg, ip measured for 24 hrs by LC-MS/MS analysis. Type of data set: ADME, organism-based. Conditions: in vivo.
The nature of data set [18]: Volume of distribution at steady state in ICR (CD-1) mouse at 10 mg/kg, iv measured for 24 hrs by LC-MS/MS analysis. Type of data set: ADME, organism-based. Conditions: in vivo.
Data set [19] in a line: Bioavailability in ICR (CD-1) mouse at 50 mg/kg, ip measured for 24 hrs by LC-MS/MS analysis. The conditions noted are these: ICR (CD-1), in vivo. The data set is classed as ADME, organism-based.
Data set [20] in a line: Toxicity in athymic BALB/c nude mouse xenografted with human MDA-MB-231 cells assessed as reduction in body weight at 50 mg/kg/day, ip administered for 2 days. Conditions: in vivo, 48 h, time 2 day. Type of data set: organism-based.
Data set [21] in a line: Toxicity in athymic BALB/c nude mouse xenografted with human MDA-MB-231 cells assessed as reduction in body weight at 25 mg/kg/day, ip administered for 28 consecutive days. Type of data set: organism-based. The conditions noted are these: in vivo, 672 h, time 28 day.
Data set [22] concerns MDA-MB-231. Put plainly: Antitumor activity against human MDA-MB-231 cells xenografted in athymic BALB/c nude mouse assessed as the tumor growth inhibition at 25 mg/kg/day, ip administered for 28 days and measured every 3 days by vernier caliper analysis relative to control. Type of data set: functional. The conditions noted are these: MDA-MB-231, 672 h, time 28 day, read-out: TGI.

Data set [23] deals with MDA-MB-231. Put plainly: Antiproliferative activity against human MDA-MB-231 cells assessed as inhibition of cell growth incubated for 48 hrs in presence of SAHA by MTT assay. The data set is classed as functional, cell-based. The conditions noted are these: MDA-MB-231, 48 h.
The nature of data set [24]: Cytotoxicity against human GES1 cells assessed as inhibition of cell growth incubated for 48 hrs in presence of SAHA by MTT assay. Type of data set: toxicity, cell-based.
Data set [25] relates to GES1. Put plainly: Cytotoxicity against human GES1 cells at 1 uM incubated for 48 hrs by MTT assay. Type of data set: toxicity, cell-based. The conditions noted are these: ges1, 48 h.
Data set [26] is described as follows: In vivo inhibition of HDAC1 in athymic BALB/c nude mouse xenografted with human MDA-MB-231 cells assessed as fold change in acetyl-histone H3 level in tumor at 25 mg/kg, ip administered for 28 consecutive days by Western blot analysis (reference value: 1). The data set is classed as functional. The conditions noted are these: time 28 day.
A short description of data set [27]: In vivo inhibition of JAK1 in athymic BALB/c nude mouse xenografted with human MDA-MB-231 cells assessed as fold change in phosphorylated STAT3 level at Tyr705 residue in tumor at 25 mg/kg, ip administered for 28 consecutive days by Western blot analysis (reference value: 1). Type of data set: functional. Conditions: time 28 day.
Data set [28] is described as follows: In vivo inhibition of JAK1 in athymic BALB/c nude mouse xenografted with human MDA-MB-231 cells assessed as fold change in STAT3 level in tumor at 25 mg/kg, ip administered for 28 consecutive days by Western blot analysis (reference value: 1). The conditions noted are these: time 28 day. The data set is classed as functional.
The nature of data set [29]: In vivo inhibition of BRD4 in athymic BALB/c nude mouse xenografted with human MDA-MB-231 cells assessed as fold change in c-Myc level in tumor at 25 mg/kg, ip administered for 28 consecutive days by Western blot analysis (reference value: 1). Conditions: time 28 day. The data set is classed as functional.

Bounds are passed on as bounds.

Regarding `CCCN(N)C(=O)c1ccc(Nc2nc(Nc3ccc(N4CCN(C)CC4)c(F)c3)ncc2C)cc1`, the IC50 in [1] was over 5000 nM; in data set [2], 10.4 nM; in data set [3], 2360 nM; in data set [5], 4500 nM. Also, the selectivity ratio in [4] was found to be 2.5. The IC50 at 48 h in data set [6] was determined as 11500 nM.

`Cc1cnc(Nc2ccc(N3CCN(C)CC3)c(F)c2)nc1Nc1ccc(C(=O)Nc2ccccc2N)cc1`: the half-inhibitory concentration (IC50) is over 5000 nM in [1], 5.9 nM in data set [2], 1810 nM in data set [3] and 2200 nM in data set [5]. In addition, the selectivity ratio in data set [4] turned out to be 4.4. Also, the midpoint of inhibition in [6], the IC50 at 48 h, lay at 9700 nM.

With `Cc1cnc(Nc2ccc(OCCN3CCCC3)cc2)nc1Nc1cccc(S(=O)(=O)NC(C)(C)C)c1` [FEDRATINIB], the half-life in [7] is 5.6 min; in [10], 173 min. In data set [8], the CLint scaled amounted to 976 mL/min/kg. The compound further returned a t1/2 in [9] of 327 min. Further, the Tmax in data set [11] came out at 4.8 min. For the same compound, the peak concentration (Cmax) in data set [12] came to 4430 ng/mL; in [13] it was 9750 ng/mL. Also, the AUCt in [14] was 2825 ng·h/mL. This compound also came in with an exposure AUC(0-t) at 24 h in data set [15] of 14500 ng·h/mL. Moreover, in data set [16], the “MRT(t)” value was determined as 113 min. In [17], the mean residence time (MRT last) at 24 h worked out at 140 min. The same compound returned a volume of distribution (Vdss) in data set [18] of 8.74 L/kg. Also, the bioavailability in [19] was determined as 102%. For the same compound, the results for the Activity entry in data set [20], in data set [21] and in data set [25] were “Toxic”, “Non-Toxic” and “Toxic”, respectively. Further, the inhibition in vivo at 25 mg/kg/day in [22] turned out to be 32%. Also, the concentration for half-maximal inhibition (IC50) in data set [23] worked out at 460 nM; in data set [5], 1400 nM. Further, the half-maximal inhibitory concentration (IC50) at 48 h in data set [24] is 610 nM; in data set [6], 890 nM. In addition, the “fold change (FC)” value in data set [26] came out at 0.8; in data set [27], 0.5; in data set [28], 1.3; in [29] it was 1.1.

As to `Cc1cnc(Nc2ccc(/C=C/C(=O)NO)cc2)nc1Nc1ccc(Cl)c(NS(=O)(=O)C(C)(C)C)c1`, the half-maximal inhibitory concentration (IC50) was determined as 380 nM in [1], 14.6 nM in data set [2], 1290 nM in data set [3] and 3400 nM in data set [5]. For the same compound, in [4], the selectivity ratio turned out to be 7.1. Inhibition in data set [6] was half-maximal at 28600 nM (IC50 at 48 h).

`O=C(CCCCCCC(=O)Nc1ccccc1)NO` [VORINOSTAT]: the t1/2 in data set [9] was 17.4 min. This compound also had a half-life in data set [10] of 81 min. In [11], the time of peak concentration (Tmax) came to 4.8 min. The peak concentration (Cmax) came to 6640 ng/mL in data set [12] and 3930 ng/mL in [13]. Also, the AUCt in data set [14] was found to be 783 ng·h/mL. The AUC(0-t) at 24 h in data set [15] came out at 2550 ng·h/mL. For the same compound, the “MRT(t)” value in data set [16] worked out at 7.2 min. Besides, the mean residence time (MRT last) at 24 h in data set [17] stood at 40.2 min. The compound also showed a Vdss in data set [18] of 1.59 L/kg. For the same compound, in data set [19], the bioavailability was 65%.
